Reference: patent publication US8901118B2, “Compounds and methods for kinase modulation, and indications therefor” (Plexxikon Inc., priority 2010, dated 2014)

Tests used:
BCR-KIT BaF3 cells = biological target: T1, BCR-KIT BaF3 cells (Homo sapiens, UniProt P10721); assay: BaF3 BCR-KIT cell proliferation assay (ATPlite); type: cell-based; settings: read-out: Inhibition of Cell Proliferation IC50, BCR/BaF3 Kit
T1 construct: fused on or other part: P11274 (Breakpoint cluster region protein)
Procedure: Compounds are assessed in a variety of cell based assays. For example BaF3 cells engineered with any of BCR-FMS, BCR-KIT, BCR-FLT3, BCR-NTRK1, BCR-NTRK2, and BCR-NTRK3, are used in cell proliferation assays to assess inhibitory activity of Fms, Kit, Flt-3, TrkA, TrkB, and TrkC, respectively. An MV-4-11 (leukemia) cell proliferation assay is used to assess inhibitory activity in Flt-3, and SKNSH (human neuroblastoma) cell proliferation assay is used to assess efficacy of Fms/Trk inhibitors. Additional cells may be assayed similarly to assess the efficacy of Fms/Trk inhibitors, such as MiaPaCa (human pancreatic cancer) and Capan-1 (human pancreatic carcinoma) cells. Reagent and assay conditions are as follows: • BaF3 cells: • Maintained in RPMI containing 10% FBS, 1% PenStrep, 1% NEAA, and 1% L-Glutamine, supplemented with 1 mg/mL G418 and 5% WEHI-CM (or recombinant murine IL-3). • Confluent cells are split 1:50 to 1:100 every 3-4 days. • MV-4-11 cells: • Maintained in Iscove's Modified Dulbecco's Medium containing 10% FBS. • Confluent cells are split 1:4 every 3-4 days. • SKNSH cells: RPMI containing 10% FBS. On day 1, cells are counted, then centrifuged in a conical tube for 5 minutes at 1000 rpm. The supernatant is removed and cells are re-suspended as follows: • BaF3: resuspend in growth media +1 mg/mL G418 (without WEHFIL-3) to 2×10^5 cells/mL. • MV-4-11: resuspend in growth media to 5×10^5 cells/mL. • SKNSH: resuspend in growth media to 2×10^4 cells/mL. The cells are plated (50 μL, 150 μL for SKNSH cells) in each well of a 96-well dish (Corning 3610) and incubated at 37° C. in 5% CO2 overnight, cells plated to a final concentration of cells as follows: • BaF3: 10,000 cells per well. • MV-4-11: 25,000 cells per well. • SKNSH: 3,000 cells per well. On day 2, compound at a maximum concentration of 5 mM is serially diluted 1:3 for a total of 8 point titration with DMSO as a control. A 1 μL aliquot of each dilution point is added to 249 μL growth media and 50 μL is added to a well containing cells, providing 10 μM compound for the maximum concentration point. The cells are incubated for 3 days at 37° C. in 5% CO2. For SKNSH cells, a 0.75 μL aliquot of appropriate dilution in DMSO is added to 150 μL of cells. On day 5, ATPlite 1 step Luminescence Assay System (Perkin Elmer #6016739) is brought to room temperature along with the cell cultures. ATPlite is added to each well as follows: • BaF3: 25 μL per well. • MV-4-11: 40 μL per well. • SKNSH: 20 μL per well. The cells are incubated at room temperature for 10 minutes, then luminescence is read on Safire reader. The measured luminescence correlates directly with cell number, such that the reading as a function of compound concentration is used to determine the IC50 value.
It is understood that the results of these assays may vary as assay conditions are varied. Inhibition levels determined under the conditions described herein represent a relative activity for the compounds tested under the specific conditions employed. The cell based assays are likely to show variability due to the complexity of the system and the sensitivity thereof to any changes in the assay conditions. […] Results for compounds that are tested and show substantially no inhibition below the highest tested concentration are represented as “-” in the tables below. In some instances, the compounds were not tested in all of the assays, or assay results were not valid, as indicated by NA in the tables below.

[1] = Relative solubility by turbidity in aqueous buffers (pH 1.5, 4.5, 6.8, 7.4); type: physicochemical; settings: for turbidity threshold (L, M, H) 1.4: pH 1.5 (SGF); for turbidity threshold (L, M, H) 4.5: pH 4.5 (SIF); for turbidity threshold (L, M, H) 6.8: pH 6.8 (SIF); for turbidity threshold (L, M, H) 7.4: pH 7.4 (HEPES)
Procedure: As an indication of relative solubility, the turbidity of compounds in aqueous solutions is assessed. To assess possible compound properties in different physiological compartments, such as stomach, intestine, and blood, a series of aqueous buffers with varying pH is used. Thus each compound is diluted into four different physiologically relevant buffers and solution turbidity is measured by spectrophotometry.
Compounds are dissolved at a concentration of 25 mM in dimethyl sulfoxide, then serially diluted 1:1 into a 96 well plate, diluting 10 times in pure dimethyl sulfoxide, with the final well of each row a dimethyl sulfoxide blank. In an assay plate, 99 μL of appropriate buffer is added to each well, and 1 μL of each sample dilution is added to the buffer, achieving a range of final total concentrations in aqueous solutions having different pH. The buffers used are Simulated Gastric Fluid (SGF-pH 1.5) 0.5M NaCl, pH 1.5; Simulated Intestinal fluid (SIF-pH 4.5 and pH 6.8) 0.05M NaH2PO4, pH 4.5 and 6.8; and Hepes Buffer (HEPES-pH 7.4) 10 mM HEPES, 150 mM NaCl, pH 7.4. Control compounds pyrene, estriol and propranolol HCl are also assessed. Plates are spun and then mixed for 1 minute, and the absorbance is read using a Tecan Safire II to read wavelengths in the visible range (490, 535, and 650 nm) at four locations per well, reflecting the degree of turbidity present. The average optical density for each wavelength in each well is graphed vs. compound concentration, and the concentration at which the curve crosses a threshold O.D. of 0.01 for each wavelength is reported as the endpoint turbidity assay result. The average of the three wavelengths is used to compare turbidity of compounds.

T1 sequence (P10721 589-937): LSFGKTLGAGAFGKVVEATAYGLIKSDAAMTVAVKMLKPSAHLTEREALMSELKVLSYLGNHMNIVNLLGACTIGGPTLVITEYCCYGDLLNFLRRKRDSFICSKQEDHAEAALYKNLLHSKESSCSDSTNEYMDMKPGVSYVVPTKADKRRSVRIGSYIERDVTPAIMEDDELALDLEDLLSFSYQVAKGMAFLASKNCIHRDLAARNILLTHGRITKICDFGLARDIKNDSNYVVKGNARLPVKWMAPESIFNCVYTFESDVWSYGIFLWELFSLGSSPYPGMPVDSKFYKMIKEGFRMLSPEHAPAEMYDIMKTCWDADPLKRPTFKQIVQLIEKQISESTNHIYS

| SMILES | IC50 (BCR-KIT BaF3 cells) | turbidity threshold (L, M, H) 1.4 [1] | turbidity threshold (L, M, H) 4.5 [1] | turbidity threshold (L, M, H) 6.8 [1] | turbidity threshold (L, M, H) 7.4 [1] |
| --- | --- | --- | --- | --- | --- |
| O=C(c1ccc(NC2CCC(F)(F)CC2)nc1Cl)c1c[nH]c2ncnc(NCC(F)(F)F)c12 [Compound P-4057, [2-chloro-6-[(4,4-difluorocyclohexyl)amino]-3-pyridyl]-[4-(2,2,2-trifluoroethylamino)-7H-pyrrolo[2,3-d]pyrimidin-5-yl]methanone] | > 1000 nM | L (low solubility if the threshold concentration is <31.3 μM) | L (low solubility if the threshold concentration is <31.3 μM) | L (low solubility if the threshold concentration is <31.3 μM) | M (moderate solubility if the threshold concentration is 31.3 μM to 250 μM) |
| CNc1ncnc2[nH]cc(C(=O)c3ccc(NC4CCC(F)(F)CC4)nc3Cl)c12 [Compound P-4058, [2-chloro-6-[(4,4-difluorocyclohexyl)amino]-3-pyridyl]-[4-(methylamino)-7H-pyrrolo[2,3-d]pyrimidin-5-yl]methanone] | < 1000 nM | M (moderate solubility if the threshold concentration is 31.3 μM to 250 μM) | L (low solubility if the threshold concentration is <31.3 μM) | L (low solubility if the threshold concentration is <31.3 μM) | L (low solubility if the threshold concentration is <31.3 μM) |
| O=C(c1ccc(NC2CCC(F)(F)CC2)nc1Cl)c1c[nH]c2ncnc(NC3CC3)c12 [Compound P-4059, [2-chloro-6-[(4,4-difluorocyclohexyl)amino]-3-pyridyl]-[4-(cyclopropylamino)-7H-pyrrolo[2,3-d]pyrimidin-5-yl]methanone] | > 1000 nM | M (moderate solubility if the threshold concentration is 31.3 μM to 250 μM) | L (low solubility if the threshold concentration is <31.3 μM) | L (low solubility if the threshold concentration is <31.3 μM) | L (low solubility if the threshold concentration is <31.3 μM) |
| O=C(c1ccc(NC2CCC(F)(F)CC2)nc1F)c1c[nH]c2ncnc(NCC(F)(F)F)c12 [Compound P-4061, [6-[(4,4-difluorocyclohexyl)amino]-2-fluoro-3-pyridyl]-[4-(2,2,2-trifluoroethylamino)-7H-pyrrolo[2,3-d]pyrimidin-5-yl]methanone] | > 1000 nM | M (moderate solubility if the threshold concentration is 31.3 μM to 250 μM) | L (low solubility if the threshold concentration is <31.3 μM) | M (moderate solubility if the threshold concentration is 31.3 μM to 250 μM) | M (moderate solubility if the threshold concentration is 31.3 μM to 250 μM) |
| CCc1ccc(Nc2ccc(C(=O)c3c[nH]c4ncnc(N)c34)c(F)n2)cn1 [Compound P-4065, (4-amino-7H-pyrrolo[2,3-d]pyrimidin-5-yl)-[6-[(6-ethyl-3-pyridyl)amino]-2-fluoro-3-pyridyl]methanone] | < 100 nM | H (high solubility if the threshold concentration is >250 μm) | M (moderate solubility if the threshold concentration is 31.3 μM to 250 μM) | M (moderate solubility if the threshold concentration is 31.3 μM to 250 μM) | M (moderate solubility if the threshold concentration is 31.3 μM to 250 μM) |

Second part, led by results:

| IC50 (BCR-KIT BaF3 cells) | SMILES | turbidity threshold (L, M, H) 1.4 [1] | turbidity threshold (L, M, H) 4.5 [1] | turbidity threshold (L, M, H) 6.8 [1] | turbidity threshold (L, M, H) 7.4 [1] |
| --- | --- | --- | --- | --- | --- |
| > 1000 nM | COc1ccc(Nc2ccc(C(=O)c3c[nH]c4ncnc(NC5CCC(F)(F)CC5)c34)c(F)n2)cn1 [Compound P-4056, [4-[(4,4-difluorocyclohexyl)amino]-7H-pyrrolo[2,3-d]pyrimidin-5-yl]-[2-fluoro-6-[(6-methoxy-3-pyridyl)amino]-3-pyridyl]methanone] | M (moderate solubility if the threshold concentration is 31.3 μM to 250 μM) | M (moderate solubility if the threshold concentration is 31.3 μM to 250 μM) | M (moderate solubility if the threshold concentration is 31.3 μM to 250 μM) | L (low solubility if the threshold concentration is <31.3 μM) |
| < 100 nM | CCNc1ncnc2[nH]cc(C(=O)c3ccc(Nc4ccc(C5CC5)nc4)nc3F)c12 [Compound P-4060, [6-[(6-cyclopropyl-3-pyridyl)amino]-2-fluoro-3-pyridyl]-[4-(ethylamino)-7H-pyrrolo[2,3-d]pyrimidin-5-yl]methanone] | H (high solubility if the threshold concentration is >250 μm) | M (moderate solubility if the threshold concentration is 31.3 μM to 250 μM) | M (moderate solubility if the threshold concentration is 31.3 μM to 250 μM) | M (moderate solubility if the threshold concentration is 31.3 μM to 250 μM) |
| < 1000 nM | O=C(c1ccc(NC2CCC(F)(F)CC2)nc1F)c1c[nH]c2ncnc(NC3CC3)c12 [Compound P-4062, [4-(cyclopropylamino)-7H-pyrrolo[2,3-d]pyrimidin-5-yl]-[6-[(4,4-difluorocyclohexyl)amino]-2-fluoro-3-pyridyl]methanone] | H (high solubility if the threshold concentration is >250 μm) | L (low solubility if the threshold concentration is <31.3 μM) | M (moderate solubility if the threshold concentration is 31.3 μM to 250 μM) | L (low solubility if the threshold concentration is <31.3 μM) |
| < 100 nM | CNc1ncnc2[nH]cc(C(=O)c3ccc(NC4CCC(F)(F)CC4)nc3F)c12 [Compound P-4063, [6-[(4,4-difluorocyclohexyl)amino]-2-fluoro-3-pyridyl]-[4-(methylamino)-7H-pyrrolo[2,3-d]pyrimidin-5-yl]methanone] | M (moderate solubility if the threshold concentration is 31.3 μM to 250 μM) | M (moderate solubility if the threshold concentration is 31.3 μM to 250 μM) | M (moderate solubility if the threshold concentration is 31.3 μM to 250 μM) | M (moderate solubility if the threshold concentration is 31.3 μM to 250 μM) |
